Molecular target: T1, SOD1^WT (Homo sapiens, UniProt P00441)
T1 construct: The full-length constructs of SOD1-wild type (aa: 1–145); His-tag (cleaved yes); made in house; host or cells: E. coli BL21 DE3
Experiment: Analytical size-exclusion chromatography (SEC) aggregation assay, SOD1^WT
Type: biochemical
Conditions: PB 30X, reducing conditions
Experimental: Fig 6 Aggregation studies of metallated and reduced SOD1^WT and SOD1^A4V on treatment with PB. ThT fluorescence was monitored during the co-incubation of metallated SOD1^WT (50 μM) (a) or SOD1^A4V (50 μM) (b) with PB at 1:30 molar ratio at 37 °C with continuous shaking, under reduced conditions. The values were normalized to the maximal ThT intensity elicited by SOD1^WT or SOD1^A4V and fitted to a Boltzmann sigmoidal equation. The control and PB-treated species were compared to analyse the effects of PB on the aggregation of SOD1^WT and SOD1^A4V. Error bars indicate the standard deviation. Analytical SEC of metallated SOD1^WT (50 μM) (c) and SOD1^A4V (50 μM) (d) with PB were analyzed under reducing conditions before and after 24 hrs and 48 hrs incubation at 37 °C. The first peak eluting at the volume was denoted as oligomerized SOD1^WT/SOD1^A4V (L). The second, third, and fourth peaks were calculated as trimer (T), dimer (D), and monomer (M) species of SOD1^WT/SOD1^A4V running at 14.5 ml, 15.7 ml, and 16.5 ml, respectively. […] The monomer (M), dimer (D), trimer (T), and large aggregate (L) species are shown as green, purple, red, and black dotted lines, respectively. All the experiments were performed for n = 3 biological replicates. […]
Fig 7 Aggregation studies of de-metallated and reduced SOD1^WT and SOD1^A4V on treatment with PB. ThT fluorescence was monitored during the co-incubation of de-metallated SOD1^WT (50 μM) (a) or SOD1^A4V (50 μM) (b) with PB at 1:30 molar ratio at 37 °C with continuous shaking, under reduced conditions. […] Analytical SEC of de-metallated SOD1^WT (50 μM) (a) and SOD1^A4V (50 μM) (b) with PB were analysed under reducing conditions before and after 24 hrs and 48 hrs incubation at 37 °C. […] The second, third, and fourth peaks were calculated as trimer (T), dimer (D), and monomer (M) species of SOD1^WT/SOD1^A4V running at 14.5 ml, 15.7 ml, and 16.5 ml, respectively. […]

[1] = Metallated SOD1^WT 50 μM, 24 and 48 hrs at 37 °C

T1 sequence (P00441 whole entry): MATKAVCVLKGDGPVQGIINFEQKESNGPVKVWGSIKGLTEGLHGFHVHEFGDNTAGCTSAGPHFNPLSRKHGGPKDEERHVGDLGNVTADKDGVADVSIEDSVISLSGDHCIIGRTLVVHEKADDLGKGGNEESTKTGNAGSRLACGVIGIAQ

CCCC[C@H](C)/C=C(C)/C=C/C(=O)O [PB, (S, 2E, 4E)-4,6-dimethyldeca-2,4-dienoic acid]
formation of trimer species (SEC) (De-metallated (EDTA) SOD1^WT 50 μM, 48hrs): insignificantly reduced compared to the control
formation of higher aggregates (SEC, eluting at 9.2 ml) [1]: may induce the formation of higher aggregates in a time-dependent manner
toxic trimer population (SEC) [1]: time-dependent alleviation of toxic trimer population

Reference: PMC10917278, “Structural insights into the modulation Of SOD1 aggregation By a fungal metabolite Phialomustin-B: Therapeutic potential in ALS” (PLOS ONE, 2024)
